Source: patent publication US11814364B2, “Pyridine N-oxide derivatives useful as factor XIa inhibitors” (Janssen Pharmaceutica NV, priority 2021, dated 2023)

Target: human plasma kallikrein (Homo sapiens, UniProt P03952)
Assay: Kallikrein inhibition FLINT assay with quenched AMC peptide substrate Z-Gly-Pro-Arg-AMC (end point EP or kinetic KIN reads)
Assay type: biochemical
Conditions: kinetic reads at 5 min intervals over 30 min; read-out: Kallikrein (KIN) IC50
Method: A fluorescence intensity (FLINT) based assay was used to monitor inhibition of human plasma kallikrein.
The Kallikrein FLINT assay was used with the following Z-Gly-Pro-Arg-AMC assay buffer: 50 mM Tris, pH 7.5, 100 mM NaCl, 5 mM CaCl2, 0.1 mg/mL BSA, 0.03% CHAPS. Assay buffer was prepared by mixing all ingredients fresh. 2× Z-Gly-Pro-Arg-AMC peptide substrate was prepared by diluting 10 mM stock into 1× assay buffer for a 100 μM working concentration (50 μM final concentration).
Test compound(s) were run in an 11-point, 3-fold serial dilution with a final top compound concentration of 1 μM. Final DMSO in assay was 2%. Plasma kallikrein was pre-incubated for 30-minute with compound and then 50 μM substrate was added to initiate the reaction. The assay was run with either end point (EP) reads at 30 min or kinetic (KIN) reads at 5 min intervals over 30 minutes.
Percent inhibition (IC50) curves were generated per compound tested, and data was analyzed using a 4-parameter logistic fit using GeneData Screener. The relative fluorescence unit (RFU) values were normalized to percent inhibition using the following equation: % inhibition=((HC−LC)−(compound−LC)/(HC−LC))*100
An 11-point dose response curve for the test compound(s) was generated using GENDATA to determine IC50 value based on the following equation: Y=Bottom+(Top−Bottom)/(1+10^((log IC50−X)*HillSlope))
Results listed in columns with […] designation were measured using endpoint reads where a single fluorescence reading was measured for each well at a 30 min timepoint.

human plasma kallikrein, sequence (P03952 391-638 limits assumed): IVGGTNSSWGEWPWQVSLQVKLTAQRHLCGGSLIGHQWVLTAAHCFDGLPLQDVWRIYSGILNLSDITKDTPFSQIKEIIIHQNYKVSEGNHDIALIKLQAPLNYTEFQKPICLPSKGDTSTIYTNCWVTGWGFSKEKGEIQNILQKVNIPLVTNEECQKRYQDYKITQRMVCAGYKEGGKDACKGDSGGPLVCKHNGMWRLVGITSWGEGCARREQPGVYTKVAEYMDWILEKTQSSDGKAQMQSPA
human plasma kallikrein, sequence (P03952 20-390 partner limits assumed): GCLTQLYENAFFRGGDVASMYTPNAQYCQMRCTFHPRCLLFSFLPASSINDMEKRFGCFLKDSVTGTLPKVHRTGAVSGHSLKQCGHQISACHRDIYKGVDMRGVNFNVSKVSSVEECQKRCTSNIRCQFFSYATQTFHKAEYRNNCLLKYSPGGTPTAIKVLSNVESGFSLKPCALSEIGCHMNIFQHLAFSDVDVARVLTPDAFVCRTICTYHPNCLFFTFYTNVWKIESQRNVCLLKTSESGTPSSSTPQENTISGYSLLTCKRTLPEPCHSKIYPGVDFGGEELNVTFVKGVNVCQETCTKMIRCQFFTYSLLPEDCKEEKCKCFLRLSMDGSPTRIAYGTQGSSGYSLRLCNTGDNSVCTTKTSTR

Question: With `Nc1ccc(-c2cnn(C(Cn3cc(F)cn3)c3ccc(-c4c(C(F)F)ccc(Cl)c4F)c[n+]3[O-])c2)c(F)n1` (single isomer, unassigned) [Example Q25] as the molecule, how does the IC50 read?
Answer: 17.8 nM

Question: Which IC50 does the source give for `COC(=O)Nc1ccc(-c2cnn(C(CC3CCCO3)c3ccc(-c4c(-n5cnnn5)ccc(Cl)c4F)c[n+]3[O-])c2)cc1` (stereo not shown) [Example P203] here?
Answer: 63.3 nM

Question: How did the IC50 turn out when `COCCC(c1ccc(-c2c(-n3cc(Cl)nn3)ccc(Cl)c2F)c[n+]1[O-])n1cc(-c2c(Cl)nnn2C)cn1` (stereo not shown) [Example P639] was run?
Answer: 316 nM

Question: `O=C(NC1CC1)c1ccc(-c2cnn(C(Cc3ccc(F)cc3)c3ccc(-c4c(-c5cnco5)ccc(Cl)c4F)c[n+]3[O-])c2)cc1` (stereo not shown) [Example P136] was tested. Which IC50 did it give?
Answer: 189 nM

Question: `Cn1ccc(CC(c2ccc(-c3c(-n4cnnn4)ccc(Cl)c3F)c[n+]2[O-])n2cc(-c3ccnc(C#N)c3)cn2)n1` (stereo not shown) [Example P359] was tested. Which IC50 did it give?
Answer: 10.2 nM

Question: Which IC50 does the source give for `[O-][n+]1cc(-c2c(-n3cnnn3)ccc(Cl)c2F)ccc1C(CC1CC1)n1cc(-c2ccncn2)cn1` (single isomer, unassigned) [Example P258] here?
Answer: 201 nM

Question: With `COC(=O)Nc1ccc(-c2cnn(C(CC(C)C)c3ccc(-c4c(-n5cnnn5)ccc(Cl)c4F)c[n+]3[O-])c2)cc1` (single isomer, unassigned) [Example P181] as the molecule, how does the IC50 read?
Answer: 67.7 nM

Question: How did the IC50 turn out when `Cn1nnc(F)c1-c1cnn(C(Cc2ccn(C(F)F)n2)c2ccc(-c3c(-n4cc(Cl)nn4)ccc(Cl)c3F)c[n+]2[O-])c1` (stereo not shown) [Example P795] was run?
Answer: 32.6 nM

Question: `[O-][n+]1cc(-c2c(-n3cnnn3)ccc(Cl)c2F)ccc1C(Cc1ccc(F)cc1)n1cc(-c2ccncc2)cn1` (single isomer, unassigned) [Example P236] was tested. Which IC50 did it give?
Answer: 158 nM

Question: Which IC50 does the source give for `COC(=O)Nc1ccc(-c2cnn(C(CC3CC3C(=O)N3CCCCC3)c3ccc(-c4c(-n5cnnn5)ccc(Cl)c4F)c[n+]3[O-])c2)cc1` (stereo not shown) [Example P231] here?
Answer: 366 nM

Question: For `COC(=O)N(C)CC(c1ccc(-c2c(-n3cnnn3)ccc(Cl)c2F)c[n+]1[O-])n1cc(-c2ccncc2)cn1` (stereo not shown) [Example P303], which IC50 is on record?
Answer: 32.7 nM

Question: For `[O-][n+]1cc(-c2c(-n3cc(Cl)nn3)ccc(Cl)c2F)ccc1[C@@H](Cn1cc(F)cn1)n1cc(-c2ccnn2C(F)F)cn1` [Example P643], which IC50 is on record?
Answer: 50.5 nM

Question: How did the IC50 turn out when `CC(C)(C)c1cc(-c2cnn(C(Cn3cc(F)cn3)c3ccc(-c4c(-n5cnnn5)ccc(Cl)c4F)c[n+]3[O-])c2)cc[n+]1[O-]` (stereo not shown) [Example P436] was run?
Answer: 95.6 nM

Question: Which IC50 does the source give for `[O-][n+]1cc(-c2c(-n3cnnn3)ccc(Cl)c2F)ccc1C(CC1CC1)n1cc(-c2c[nH]nc2Cl)cn1` (stereo not shown) [Example P938] here?
Answer: 6.9 nM

Question: `[O-][n+]1cc(-c2c(-n3cc(Cl)nn3)ccc(Cl)c2F)ccc1[C@H](Cn1cc(F)cn1)n1cc(-c2c(F)cnn2C(F)F)cn1` [Example P634] was tested. Which IC50 did it give?
Answer: 739 nM

Question: How did the IC50 turn out when `CC1CC1C[C@@H](c1ccc(-c2c(-n3cnnn3)ccc(Cl)c2F)c[n+]1[O-])n1cc(-c2c(F)nnn2C)cn1` (stereo partly shown) [Example P769] was run?
Answer: > 100 nM

Question: With `O=C1CCCN1CC(c1ccc(-c2c(-n3cnnn3)ccc(Cl)c2F)c[n+]1[O-])n1cc(-c2cc[n+]([O-])c(C(F)F)c2)cn1` (single isomer, unassigned) [Example P362] as the molecule, how does the IC50 read?
Answer: 38.3 nM

Question: With `Cc1ncn(-c2cnn(C(CCOC(F)F)c3ccc(-c4c(-n5cc(OC(F)F)nn5)ccc(Cl)c4F)c[n+]3[O-])c2)n1` (single isomer, unassigned) [Example P825] as the molecule, how does the IC50 read?
Answer: 588 nM

Question: For `[O-][n+]1cc(-c2c(C(F)F)ccc(Cl)c2F)ccc1C(Cn1cc(F)cn1)n1cc(-c2ccnc(C(F)(F)F)c2)cn1` (single isomer, unassigned) [Example Q22], which IC50 is on record?
Answer: 806 nM

Question: With `Cn1ncnc1-c1cnn(C(CCOC(F)(F)F)c2ccc(-c3c(-n4cc(C(F)(F)F)nn4)ccc(Cl)c3F)c[n+]2[O-])c1` (stereo not shown) [Example P840] as the molecule, how does the IC50 read?
Answer: ~423 nM

Question: With `CC(C)C(=O)N(C)CC(c1ccc(-c2c(-n3cnnn3)ccc(Cl)c2F)c[n+]1[O-])n1cc(-c2ccnc(C(F)(F)F)c2)cn1` (single isomer, unassigned) [Example P421] as the molecule, how does the IC50 read?
Answer: 41.1 nM

Question: `[O-][n+]1cc(-c2c(-n3cnnn3)ccc(Cl)c2F)ccc1C(Cn1cccn1)n1cc(-c2ccnc(C(F)(F)F)c2)cn1` (single isomer, unassigned) [Example P513] was tested. Which IC50 did it give?
Answer: 5.3 nM

Question: For `[O-][n+]1cc(-c2c(-n3cnnn3)ccc(Cl)c2F)ccc1C(Cn1cc2c(n1)COCC2)n1cc(-c2ccnc(C(F)(F)F)c2)cn1` (stereo not shown) [Example P465], which IC50 is on record?
Answer: 76.5 nM

Question: How did the IC50 turn out when `O=C(c1cnn(CC(c2ccc(-c3c(-n4cnnn4)ccc(Cl)c3F)c[n+]2[O-])n2cc(-c3cc[n+]([O-])cc3)cn2)c1)N1CCCCC1` (stereo not shown) [Example P292] was run?
Answer: 51.3 nM

Question: `NC(=O)c1ccc(-c2cnn(C(CN3CCCC3=O)c3ccc(-c4c(-n5cc(C(F)(F)F)nn5)ccc(Cl)c4F)c[n+]3[O-])c2)cc1F` (single isomer, unassigned) [Example P936] was tested. Which IC50 did it give?
Answer: 397 nM

Question: How did the IC50 turn out when `COC(=O)Nc1ccc(-c2cnn(C(COC(C)C)c3ccc(-c4c(-n5cnnn5)ccc(Cl)c4F)c[n+]3[O-])c2)cc1` (stereo not shown) [Example P229] was run?
Answer: 271 nM

Question: With `[O-][n+]1cc(-c2c(-n3cnnn3)ccc(Cl)c2F)ccc1[C@@H](CC1CC1)n1cc(-c2nnco2)cn1` [Example P545] as the molecule, how does the IC50 read?
Answer: 943 nM

Question: With `[O-][n+]1cc(-c2c(-n3cnnn3)ccc(Cl)c2F)ccc1[C@@H](CCOC(F)F)n1cc(-c2cncn2C(F)F)cn1` [Example P771] as the molecule, how does the IC50 read?
Answer: 16.2 nM

Question: `CCC(c1ccc(-c2c(-n3cnnn3)ccc(Cl)c2F)c[n+]1[O-])n1cc(-c2ccc(C(N)=O)c(F)c2)cn1` (single isomer, unassigned) [Example P949] was tested. Which IC50 did it give?
Answer: 21.6 nM

Question: `O=C(NC1CC1)c1ccc(-c2cnn(C(CC3CCCCO3)c3ccc(-c4c(-n5cnnn5)ccc(Cl)c4F)c[n+]3[O-])c2)cc1` (single isomer, unassigned) [Example P143] was tested. Which IC50 did it give?
Answer: 58.1 nM

Question: For `COCc1ccn(CC(c2ccc(-c3c(-n4cnnn4)ccc(Cl)c3F)c[n+]2[O-])n2cc(-c3ccc(N)nc3F)cn2)n1` (stereo not shown) [Example P492], which IC50 is on record?
Answer: 2.8 nM

Question: How did the IC50 turn out when `Cn1cc(C[C@H](c2ccc(-c3c(-n4cc(Cl)nn4)ccc(Cl)c3F)c[n+]2[O-])n2cc(-c3ccnc(C(F)(F)F)c3)cn2)nn1` [Example P739] was run?
Answer: 22.8 nM

Question: Which IC50 does the source give for `CCC(c1ccc(-c2c(-n3cnnn3)ccc(Cl)c2F)c[n+]1[O-])n1cc(-c2ccc(NC(=O)OC)cc2)cn1` (stereo not shown) [Example P153] here?
Answer: 108 nM

Question: For `[O-][n+]1cc(-c2c(-n3cnnn3)ccc(Cl)c2F)ccc1C(Cn1cc(F)cn1)n1cc(-c2ccnc(C(F)(F)F)n2)cn1` (stereo not shown) [Example P469], which IC50 is on record?
Answer: 36.2 nM

Question: Which IC50 does the source give for `NC(=O)c1ccc(-c2cnn(C(Cc3ncco3)c3ccc(-c4c(-n5cc(C(F)(F)F)nn5)ccc(Cl)c4F)c[n+]3[O-])c2)cc1F` (stereo not shown) [Example P909] here?
Answer: 5.5 nM

Question: For `[O-][n+]1cc(-c2c(-n3cnnn3)ccc(Cl)c2F)ccc1[C@@H](Cc1ccc(C(F)(F)F)nc1)n1cc(-c2cncn2C(F)F)cn1` [Example P785], which IC50 is on record?
Answer: 32.9 nM

Question: Which IC50 does the source give for `Cc1nc(N)ccc1-c1cnn(C(CCOC(F)F)c2ccc(-c3c(-n4cnnn4)ccc(Cl)c3F)c[n+]2[O-])c1` (single isomer, unassigned) [Example P343] here?
Answer: 767 nM

Question: `COCC[C@H](c1ccc(-c2c(-n3cnnn3)ccc(Cl)c2F)c[n+]1[O-])n1cc(-c2c(Cl)cnn2C(F)F)cn1` [Example P623] was tested. Which IC50 did it give?
Answer: 217 nM

Question: With `N#Cc1cc(-c2cnn(C(CN3CCCC3=O)c3ccc(-c4c(-n5cnnn5)ccc(Cl)c4F)c[n+]3[O-])c2)cc[n+]1[O-]` (stereo not shown) [Example P466] as the molecule, how does the IC50 read?
Answer: 231 nM

Question: `[O-][n+]1cc(-c2c(-n3cnnn3)ccc(Cl)c2F)ccc1[C@@H](Cc1ccc(C(F)(F)F)nc1)n1cc(-c2ccnn2C(F)F)cn1` [Example P777] was tested. Which IC50 did it give?
Answer: 6.5 nM
